# Results as given in ChEMBL document CHEMBL1131593, “Correlation of human jejunal permeability (in vivo) of drugs with experimentally and theoretically derived parameters. A multivariate data analysis approach” (J Med Chem, 1998).
# Several values for one entry are separate records, joined by “and”; a condition that tells them apart may be missing. Equal entries are not always repeated.
# How the values were obtained:
# [1] = physchem; settings: octanol/water
# [2] = Distribution coefficient in octanol/water at pH 5.5; assay type: physicochemical; settings: read-out: Log D5.5
# [3] = Distribution coefficient in octanol/water at pH 6.5; assay type: physicochemical; settings: read-out: Log D6.5
# [4] = octanol/water
# [5] = physchem
# [6] = Distribution coefficient in octanol/water at pH 7.4; assay type: physicochemical; settings: read-out: Log D7.4
# [7] = physchem; settings: octanol/water, pH 5.5
# [8] = physchem; settings: octanol/water, pH 6.5
# [9] = physchem; settings: octanol/water, pH 7.4
# [10] = physchem; remark: listed apart in the source
# [11] = Partition coefficient value and its ionic species.; assay type: ADME; settings: octanol/water
# [12] = pKa value of the compound. (extrapolated values); assay type: physicochemical
# [13] = octanol/water; remark: listed apart in the source
# [14] = physchem; settings: octanol/water; remark: listed apart in the source
logP [1],logD [2],logD [3],GOF [4],logD [6],Log Pion [11],Compound,also measured
–,–,–,1.7,–,–,NS(=O)(=O)c1cc(C(=O)O)c(NCc2ccco2)cc1Cl [FUROSEMIDE],–
-0.17,–,–,1.6,–,–,NS(=O)(=O)c1cc2c(cc1Cl)NCNS2(=O)=O [HYDROCHLOROTHIAZIDE],–
3.37,–,–,1.1,–,–,C[C@H](C(=O)O)c1cccc(C(=O)c2ccccc2)c1 [DEXKETOPROFEN],logD [7]: 1.8; logD [8]: 0.8; logD [9]: 0.1
< -2,< -2,< -2,1.3,< -2,< -2,C[C@](N)(Cc1ccc(O)c(O)c1)C(=O)O [METHYLDOPA],pKa [5]: 12.7
< -2,< -2,< -2,1.4,< -2,< -2,N[C@@H](Cc1ccc(O)c(O)c1)C(=O)O [LEVODOPA],pKa [5]: 12.7
< -2,< -2,< -2,0.5,< -2,–,CN1CC(=O)NC1=N [CREATININE],pKa [12]: 4.85
–,–,–,3.1,–,–,CC1(C)S[C@@H]2[C@H](NC(=O)[C@H](N)c3ccc(O)cc3)C(=O)N2[C@H]1C(=O)O [AMOXICILLIN],logD [7]: -1.7; logP [13]: -1.71; logD [8]: -1.7; pKa [10]: 9.61; logD [9]: -1.6

# The remaining lines, values behind:
Compound,logP [1],logD [2],logD [3],GOF [4],logD [6],Log Pion [11],also measured
CC(C)(C)NC[C@H](O)c1cc(O)cc(O)c1 [TERBUTALINE],-0.09,-1.3,-1.3,3.3,-1.1,–,pKa [5]: 11.1
Cc1cc(=O)n(-c2ccccc2)n1C [ANTIPYRINE],–,–,–,1.2,–,–,pKa [10]: 1.44
CC(C)NC[C@H](O)COc1ccc(CC(N)=O)cc1 [ATENOLOL],–,–,–,1.6,–,–,–
C[C@H](N[C@@H](CCc1ccccc1)C(=O)O)C(=O)N1CCC[C@H]1C(=O)O [ENALAPRILAT ANHYDROUS],-0.13,-1,-1,1.6,-1,-1.07 and -0.99,pKa [12]: 7.84
CC(C)NC[C@H](O)COc1cccc2ccccc12.Cl [PROPRANOLOL HYDROCHLORIDE],–,–,–,0.9,–,–,–
CC(C)C[C@H](N)C(=O)O [LEUCINE],-1.55,-1.6,-1.6,2.6,-1.6,-2.07,pKa [12]: 9.61
CC(C)n1c(/C=C/[C@@H](O)C[C@@H](O)CC(=O)O)c(-c2ccc(F)cc2)c2ccccc21 [FLUVASTATIN SODIUM],4.17,–,–,1.2,–,–,logD [7]: 3; logPion [14]: 1.12; logD [8]: 2; pKa [10]: 4.31; logD [9]: 1.4
COCCc1ccc(OC[C@@H](O)CNC(C)C)cc1 [(S)-METOPROLOL],2.07,-0.6,-0.5,0.9,0,-0.63,–
